From ChEMBL document CHEMBL4014321, “Discovery of Pyrazolo[1,5-a]pyrimidine B-Cell Lymphoma 6 (BCL6) Binders and Optimization to High Affinity Macrocyclic Inhibitors” (J Med Chem, 2017)

Experiments:
[1] = test system: OCI-Ly10; assay: Antiproliferative activity against BCL6 dependent human OCI-LY10 cells after 3 days by CellTiter-Glo assay; assay type: functional; conditions: OCI-Ly10, 72 h
[2] = test system: OCI-LY19; assay: Antiproliferative activity against BCL6 independent human OCI-LY19 cells after 3 days by CellTiter-Glo assay; assay type: functional; conditions: OCI-LY19, 72 h
[3] = test system: OCI-Ly3; assay: Antiproliferative activity against BCL6 dependent human OCI-LY3 cells after 3 days by CellTiter-Glo assay; assay type: functional; conditions: OCI-Ly3, 72 h
[4] = test system: KARPAS-422; assay: Antiproliferative activity against BCL6 […] human KARPAS422 cells after 3 days by CellTiter-Glo assay; assay type: functional; conditions: KARPAS-422, 72 h
[5] = test system: SU-DHL-2; assay: Antiproliferative activity against BCL6 dependent human SU-DHL-2 cells after 3 days by CellTiter-Glo assay; assay type: functional; conditions: SU-DHL-2, 72 h
[6] = test system: OCI-Ly1; assay: Antiproliferative activity against BCL6 dependent human OCI-LY1 cells after 3 days by CellTiter-Glo assay; assay type: functional; conditions: OCI-Ly1, 72 h
[7] = test system: TMD8; assay: Antiproliferative activity against BCL6 dependent human TMD8 cells after 3 days by CellTiter-Glo assay; assay type: functional; conditions: TMD8, 72 h
[8] = test system: AMO1; assay: Antiproliferative activity against BCL6 dependent human AMO1 cells after 3 days by CellTiter-Glo assay; assay type: functional; conditions: AMO1, 72 h
[9] = test system: SUD4; assay: Antiproliferative activity against BCL6 dependent human SUDHL4 cells after 3 days by CellTiter-Glo assay; assay type: functional; conditions: SU-DHL-4, 72 h
[10] = Inhibition of human CK2 protein
[11] = test system: U2932; assay: Antiproliferative activity against BCL6 dependent human U2932 cells after 3 days by CellTiter-Glo assay; assay type: functional; conditions: U2932, 72 h
[12] = biological target: T1, B-cell lymphoma 6 protein (Homo sapiens, UniProt P41182, C67R/C84N/C8Q); assay: Inhibition of SMRT2 H1426W mutant peptide binding to N-terminal His6-tagged human BCL6 BTB domain C8Q/C67R/C84N mutant expressed in Escherichia coli BL21 (DE3) preincubated for 30 mins followed by SMRT2 H1426W mutant peptide addition measured after 60 mins by time-resolved fluorescence resonance energy transfer assay
[13] = biological target: T1, B-cell lymphoma 6 protein; assay: Binding affinity to N-terminal His6-tagged human BCL6 BTB domain C8Q/C67R/C84N mutant expressed in Escherichia coli BL21 (DE3) by surface plasmon resonance spectrometry

Row | SMILES | GI50 [1] | GI50 [2] | GI50 [3] | GI50 [4] | GI50 [5] | GI50 [6] | GI50 [7] | GI50 [8] | GI50 [9] | IC50 [10] | GI50 [11] | IC50 [12] | Kd [13]
1 | N#Cc1cnn2c3cc(nc12)N1C[C@H](C[C@H]1CO)OCCCCOc1cc(cc2c1NC(=O)CC2)N3 | 10 µM | 15.8 µM | 12.6 µM | 20 µM | 12.6 µM | 25.1 µM | 15.8 µM | 20 µM | 25.1 µM | 0.4 µM | 15.8 µM |  | 
2 | N#Cc1cnn2c(NC3CC3)cc(N3CCCC3)nc12 |  |  |  |  |  |  |  |  |  |  |  | > 99 µM | 
3 | O=C(O)CCN1C(=O)/C(=C2/C(=O)Nc3ccc(Cl)cc32)SC1=S | 12.6 µM | 10 µM | 20 µM | 12.6 µM | 12.6 µM | 20 µM | 10 µM | 20 µM | 10 µM | 0.69 µM | 12.6 µM |  | 
4 | O=C1CCc2cc3cc(c2N1)OCCCCO[C@H]1C[C@@H](CO)N(C1)c1cc(n2nccc2n1)N3 | 12.6 µM | 12.6 µM | 15.8 µM | 12.6 µM | 10 µM | 12.6 µM | 10 µM | 12.6 µM | 20 µM | > 10 µM | 15.8 µM |  | 
5 | N#Cc1cnn2c(Nc3ccccc3)cc(N3CCCC3)nc12 |  |  |  |  |  |  |  |  |  |  |  | > 100 µM | 
6 | O=C1CCc2cc3cc(c2N1CC1CC(F)(F)C1)OC/C=C/CO[C@H]1C[C@@H](CO)N(C1)c1cc(n2ncc(Cl)c2n1)N3 | 7.94 µM | 6.31 µM | 12.6 µM | 10 µM | 7.94 µM | 7.94 µM | 10 µM | 25.1 µM | 10 µM | 2.1 µM | 6.31 µM |  | 
7 | O=C1CCc2cc3cc(c2N1Cc1ccncc1)OC/C=C/CO[C@H]1C[C@@H](CO)N(C1)c1cc(n2ncc(Cl)c2n1)N3 | 10 µM | 12.6 µM | 12.6 µM | 12.6 µM | 7.94 µM | 10 µM | 10 µM | 20 µM | 10 µM | > 10 µM | 10 µM |  | 
8 | N#Cc1cnn2c(Nc3ccc4c(c3)CCC(=O)N4)cc(N3CCCC3)nc12 |  |  |  |  |  |  |  |  |  |  |  | 2.9 µM | 
9 | CCNc1cc(-c2cccnc2)nc2ccnn12 |  |  |  |  |  |  |  |  |  |  |  |  | 689 µM
10 | COc1cccc(CN2C(=O)CCc3cc4cc(c32)OC/C=C/CO[C@H]2C[C@@H](CO)N(C2)c2cc(n3ncc(Cl)c3n2)N4)c1 | 6.31 µM | 10 µM | > 31.6 µM | 25.1 µM | 6.31 µM | 6.31 µM | 20 µM | 15.8 µM | 31.6 µM | > 10 µM | 15.8 µM |  | 
11 | N#Cc1cnn2c(NC3CC3)ccnc12 |  |  |  |  |  |  |  |  |  |  |  | > 99 µM | 319 µM
12 | COc1cccc(CN2C(=O)CCc3cc4cc(c32)OC/C=C/CO[C@H]2C[C@@H](CO)N(C2)c2cc(n3ncc(C#N)c3n2)N4)c1 | 3.98 µM | 5.01 µM | 6.31 µM | 5.01 µM | 2.51 µM | 3.16 µM | 3.98 µM | 10 µM | 6.31 µM | 1.2 µM | 3.98 µM |  | 
13 | O=C1CCc2cc3cc(c2N1CCCN1CCOCC1)OC/C=C/CO[C@H]1C[C@@H](CO)N(C1)c1cc(n2ncc(Cl)c2n1)N3 | 7.94 µM | 7.94 µM | 10 µM | 12.6 µM | 10 µM | 10 µM | 10 µM | 12.6 µM | 12.6 µM | 5.9 µM | 10 µM |  | 
14 | O=C(O)C[C@@H]1C[C@H]2CN1c1cc(n3ncc(Cl)c3n1)Nc1cc3c(c(c1)OC/C=C/CO2)N(CC1CC(F)(F)C1)C(=O)CC3 | 15.8 µM | 10 µM | 20 µM | 20 µM | 20 µM | 15.8 µM | 15.8 µM | 31.6 µM | 15.8 µM | 0.16 µM | 15.8 µM |  | 
15 | Cc1ccc(CN2C(=O)CCc3cc4cc(c32)OC/C=C/CO[C@H]2C[C@@H](CO)N(C2)c2cc(n3ncc(Cl)c3n2)N4)cc1 | 12.6 µM | 10 µM | 15.8 µM | > 31.6 µM | 6.31 µM | 7.94 µM | 15.8 µM | 20 µM | 20 µM | > 10 µM | 10 µM |  | 
16 | CC(=O)Nc1ccc(-c2cc(NC3CC3)n3ncc(C#N)c3n2)cc1N1CC[C@@H](N(C)C)C1 |  |  |  |  |  |  |  |  |  | 0.012 µM |  |  | 
17 | N#Cc1cnn2c3cc(nc12)N1CC[C@@H](C1)OCCCCOc1cc(cc2c1NC(=O)CC2)N3 | 7.94 µM | 7.94 µM | 3.98 µM | 7.94 µM | 10 µM | 7.94 µM | 5.01 µM | 10 µM | 10 µM |  | 10 µM |  | 
18 | N#Cc1cnn2c(Nc3ccc4c(c3)CCC(=O)N4)cc(N3CCC[C@@H]3CO)nc12 |  |  |  |  |  |  |  |  |  |  |  | 0.59 µM | 
19 | O=C1CCc2cc3cc(c2N1CC1CC1)OC/C=C/CO[C@H]1C[C@@H](CO)N(C1)c1cc(n2ncc(Cl)c2n1)N3 | 20 µM | 15.8 µM | > 31.6 µM | > 31.6 µM | 20 µM | > 31.6 µM | 25.1 µM | > 31.6 µM | > 31.6 µM | 2.2 µM | 10 µM |  | 
20 | Cc1ccccc1CN1C(=O)CCc2cc3cc(c21)OC/C=C/CO[C@H]1C[C@@H](CO)N(C1)c1cc(n2ncc(Cl)c2n1)N3 | 10 µM | 10 µM | 15.8 µM | > 31.6 µM | 6.31 µM | 10 µM | 20 µM | 25.1 µM | 6.31 µM | > 10 µM | 10 µM |  | 
21 | N#Cc1cnn2c(Nc3ccc4c(c3)CCC(=O)N4)cc(N3CCC[C@H]3CC(=O)O)nc12 |  |  |  |  |  |  |  |  |  |  |  | 0.35 µM | 1.1 µM
22 | O=C1CCc2cc3cc(c2N1)OCCCCO[C@H]1C[C@@H](CO)N(C1)c1cc(n2ncc(Cl)c2n1)N3 | 2.51 µM | 1.58 µM | 3.16 µM | 5.01 µM | 3.98 µM | 6.31 µM | 3.16 µM | 3.98 µM | 10 µM | 1.4 µM | 5.01 µM |  | 
23 | CN1C(=O)CCc2cc3cc(c21)OC/C=C/CO[C@H]1C[C@@H](CO)N(C1)c1cc(n2ncc(Cl)c2n1)N3 | 6.31 µM | 5.01 µM | 6.31 µM | 5.01 µM | 3.16 µM | 6.31 µM | 3.98 µM | 5.01 µM | 6.31 µM | 7 µM | 5.01 µM |  | 
